In data set [1] the test system is small-cell lung tumor (LXFS 650). Briefly: tumor growth of implanted small-cell lung tumor (LXFS 650) in nude mice. The class given is in vivo. The note with it: tail vein injection, 4 consecutive days, FIG. 4. The source says:
The three compounds mentioned above by way of example have likewise been investigated for their in vivo suitability in an animal model. Nude mice are chosen as animal model, into which it is possible to implant various human tumors. This makes it possible to investigate the therapeutic efficacy of the substances under defined reproducible conditions. An animal experiment of this type is documented in FIG. 4. A routine method which is conventional in the prior art and is outlined below is used.
A small-cell lung tumor (LXFS 650) whose extra-cellular pH of about 6.9 is close to the physiological pH of 7.2-7.3 is implanted into the nude mice. The therapeutic substance used is, as in FIG. 1, 2,4-di-hydroxybenzoic acid (substance (1)). 3-4 weeks after implantation of the tumor, 15 mice with tumors 5-7 mm in diameter are divided into 3 groups: the first group of 5 serves as control group without therapy, and the substance (1) is injected into the tail vein in a concentration of 200 mg/kg/day in the second group of 5 and in a concentration of 400 mg/kg/day in the third group of 5. In the present experiment, 4 injections into the tail vein were carried out on 4 consecutive days. […] The tumor volumes were determined on days 7, 10, 14 and 17.

Data set [2] relates to K-562 cancer cells. Briefly: toxicity effect on K-562 cancer cells as a function of extracellular pH (FACScan and XTT-ELISA). It is filed as cell-based. An excerpt: Thus, the toxicity properties of a substance which comes under consideration can be determined experimentally by the FACScan and the XTT-ELISA techniques. Both methods are known in the prior art. […] FACS and XTT techniques can likewise be used to investigate the toxicity of the substances for mononuclear blood cells (MNCs). The proportion of dead cells is detected in the FACS technique by propidium iodide staining, and in the XTT method by conversion of XTT into formazan by mitochondrial dehydrogenase.
To detect pH-sensitive toxic substances, selected substances are allowed to act at various predetermined pH values, for example at pH 5.5, 6.0, 6.5, 7.0 and 7.5, both on tumor cell lines and on MNCs, for example for 4 hours and 24 hours, in order thereafter to measure the number of killed cancer cells or MNCs. Control measurements without addition of pH-sensitive substances are carried out in parallel with this.
The activity of the 4-succinic ester of 2,4-dihydroxybenzoic acid, of trans-3,4-difluorocinnamic acid and of 2,4-dinitrophenol has been investigated. Used for this purpose were the methods of the FACScan and ELISA techniques described above. […] FIG. 2A depicts the effect of trans-3,4-difluorocinnamic acid on K-562 cells. […] FIG. 2B depicts the effect of the same compound on MNCs.
Background: Formazan colour is commonly taken as a measure of viable cells.

The subject of data set [3] is mononuclear blood cells (MNCs). Put plainly: toxicity on mononuclear blood cells (MNCs) as a function of extracellular pH (FACScan and XTT-ELISA). The note with it: extracellular pH in the range from 7.2 to 7.4; FIG. 1B. The class given is cell-based. The source says:
A skilled person is able to find, with the aid of the above information and using his general expert knowledge and a few simple tests, as described hereinafter, compounds which are used according to the invention as medicinal substance. Thus, the toxicity properties of a substance which comes under consideration can be determined experimentally by the FACScan and the XTT-ELISA techniques. Both methods are known in the prior art. It is possible to investigate suspended cancer cell lines such as, for example, K-562, Raji or Daudi by both techniques, but adherent cancer cell lines only by the XTT-ELISA technique. FACS and XTT techniques can likewise be used to investigate the toxicity of the substances for mononuclear blood cells (MNCs). The proportion of dead cells is detected in the FACS technique by propidium iodide staining, and in the XTT method by conversion of XTT into formazan by mitochondrial dehydrogenase. The methods are described, for example, in Tumor-Biologie 1994, 15, 304 and in the biochemistry catalog of Boehringer Mannheim, Germany 0392.C 73.3.1465554 1 CB, Cat. No. 1465 015. […]

Setting [4] is: K-562 cancer cells, extracellular pH, FIG. 1A.

Each structure is given as a SMILES string.

We go through 3 molecules from patent US5985927A, “Medicaments for the selective treatment of tumor tissues” (priority 1995, dated 1999).

Consider `O=C(O)c1ccc(O)cc1O` [substance (1), 2,4-di-hydroxybenzoic acid], for which the “effect on tumor growth” value in data set [1] (200 mg/kg/day, only on day 10) was “onset of a slight effect only on day 10”. For the same molecule, in data set [1] (400 mg/kg/day, after day 7 and up to day 10), the tumor growth entry was “cessation of growth”. For the same molecule, the “tumor growth after end of therapy” value in data set [1] (400 mg/kg/day, after day 10, therapy not continued further) is listed as “the tumor starts to grow again”.
Regarding `O=C(O)/C=C/c1ccc(F)c(F)c1` [trans-3,4-difluorocinnamic acid], the “extracellular pH until which the cytotoxic effect on K-562 cells is negligible” value in data set [2] (cytotoxic effect negligible until the extracellular pH is below this value, K-562 cells, FIG. 2A) is given as “below 6.5”.
As to `O=C(O)CCC(=O)Oc1ccc(C(=O)O)c(O)c1` [4-succinic ester of 2,4-dihydroxybenzoic acid], in data set [2] (setting [4]), the “pH of maximum toxicity effect on K-562 cells” value is reported as 5.7 and the “pH of onset of toxicity effect on K-562 cells” value is on record as roughly 6.5. For the same molecule, in data set [3], the “toxicity on MNCs” value is reported as “Negligible toxicity”.
